Assay results as given in article PMC9602792, “Preclinical evaluation of the epithelial sodium channel inhibitor AZD5634 and implications on human translation” (American Journal of Physiology - Lung Cellular and …, 2022).
pEC50: −log10 of the molar value.

Assays:
ENaC = biological target: T1, ENaC (Homo sapiens, UniProt P37088+P51168+P51170); assay: Ussing chamber Isc in F508del-homozygous CF HBEC cultures; type: cell-based
T1 construct: host or cells: primary normal human bronchial epithelial cells, ALI culture
T1 sequence (P37088 1-669): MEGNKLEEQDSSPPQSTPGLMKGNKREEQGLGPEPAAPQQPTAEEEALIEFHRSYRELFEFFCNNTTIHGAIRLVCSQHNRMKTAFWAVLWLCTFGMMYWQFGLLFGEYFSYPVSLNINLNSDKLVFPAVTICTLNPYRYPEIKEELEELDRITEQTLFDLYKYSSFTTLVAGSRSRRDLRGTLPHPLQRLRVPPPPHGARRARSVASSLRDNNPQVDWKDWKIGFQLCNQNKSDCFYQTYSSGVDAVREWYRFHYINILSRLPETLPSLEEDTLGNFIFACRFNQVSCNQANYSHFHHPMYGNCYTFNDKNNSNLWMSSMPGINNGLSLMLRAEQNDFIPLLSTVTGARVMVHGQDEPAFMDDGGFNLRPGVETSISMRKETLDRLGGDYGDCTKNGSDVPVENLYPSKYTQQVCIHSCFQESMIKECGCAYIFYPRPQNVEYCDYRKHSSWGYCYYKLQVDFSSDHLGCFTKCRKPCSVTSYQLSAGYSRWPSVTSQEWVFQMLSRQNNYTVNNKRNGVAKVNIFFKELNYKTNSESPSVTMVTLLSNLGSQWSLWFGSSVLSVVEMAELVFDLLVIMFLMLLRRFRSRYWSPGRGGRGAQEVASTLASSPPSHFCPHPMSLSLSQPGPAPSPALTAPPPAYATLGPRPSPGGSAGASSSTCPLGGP
T1 sequence (P51168 1-640): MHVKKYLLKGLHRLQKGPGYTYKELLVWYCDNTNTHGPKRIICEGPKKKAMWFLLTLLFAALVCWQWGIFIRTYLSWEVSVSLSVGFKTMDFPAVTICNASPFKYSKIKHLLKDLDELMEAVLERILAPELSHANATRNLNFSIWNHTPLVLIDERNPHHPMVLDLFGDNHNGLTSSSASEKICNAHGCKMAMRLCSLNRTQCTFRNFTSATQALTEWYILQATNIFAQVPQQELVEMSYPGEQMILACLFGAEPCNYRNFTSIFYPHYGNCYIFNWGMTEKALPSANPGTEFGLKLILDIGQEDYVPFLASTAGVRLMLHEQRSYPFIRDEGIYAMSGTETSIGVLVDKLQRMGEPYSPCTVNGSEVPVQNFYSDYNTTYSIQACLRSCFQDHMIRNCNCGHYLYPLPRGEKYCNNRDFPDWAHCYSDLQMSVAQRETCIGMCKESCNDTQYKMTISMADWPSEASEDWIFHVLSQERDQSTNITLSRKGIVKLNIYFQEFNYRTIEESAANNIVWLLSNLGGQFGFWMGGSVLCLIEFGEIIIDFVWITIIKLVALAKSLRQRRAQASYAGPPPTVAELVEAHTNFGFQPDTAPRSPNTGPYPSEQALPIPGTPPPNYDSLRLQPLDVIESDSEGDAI
T1 sequence (P51170 1-649): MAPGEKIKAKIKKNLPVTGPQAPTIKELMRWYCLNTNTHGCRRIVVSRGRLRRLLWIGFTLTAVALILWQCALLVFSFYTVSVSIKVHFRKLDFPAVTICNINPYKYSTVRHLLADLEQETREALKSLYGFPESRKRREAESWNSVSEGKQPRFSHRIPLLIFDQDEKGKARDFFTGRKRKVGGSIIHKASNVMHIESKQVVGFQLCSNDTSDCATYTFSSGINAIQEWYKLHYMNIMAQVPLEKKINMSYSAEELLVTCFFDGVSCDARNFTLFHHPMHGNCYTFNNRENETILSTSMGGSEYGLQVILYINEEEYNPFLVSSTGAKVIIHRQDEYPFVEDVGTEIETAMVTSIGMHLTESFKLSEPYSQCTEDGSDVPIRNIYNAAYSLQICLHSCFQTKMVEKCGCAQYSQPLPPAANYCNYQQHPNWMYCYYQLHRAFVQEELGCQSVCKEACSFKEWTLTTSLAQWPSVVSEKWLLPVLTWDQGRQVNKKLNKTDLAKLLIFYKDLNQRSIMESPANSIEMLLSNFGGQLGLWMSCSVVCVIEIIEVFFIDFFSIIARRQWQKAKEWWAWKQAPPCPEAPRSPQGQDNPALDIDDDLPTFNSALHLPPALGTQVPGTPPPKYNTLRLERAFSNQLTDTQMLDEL
Protocol: Using previously described techniques ([2], [37]), epithelial cells were harvested from excised lung tissue derived from CF donors homozygous for F508del CFTR, expanded, and grown until confluency was attained. […] To stimulate fresh mucus secretion and formation of an even ASL layer, the cells were washed 48–72 h before experimentation with PneumaCult ALI media (80 µL), added apically, and then aspirated following 30–45 min incubation at 37°C. The washing process was repeated with a 15-min incubation period and the mucus layer was allowed to reestablish, after which the cells were treated with 1 µL of AZD5634 (1 µM, apical), alone and in combination with lumacaftor and ivacaftor (luma/iva; 3 µM/10 µM, basolateral). PBS (1% DMSO, apical) served as a vehicle control. […] Only passage 1 and 2 monolayers were used for these studies.
CFTR-dependent ion transport electrophysiology was measured in HBEC cultures by Isc using modified P2300 Ussing chambers (Physiologic Instruments, San Diego, CA) as previously described ([37], [38]). […] All chambers were maintained at 37°C and agonist stimulation was initiated within 15 min of placement in the chambers.
Descriptive statistics were calculated and means compared using unpaired or paired t tests, or ANOVA, with post hoc analyses conducted for multiple comparisons where appropriate. For analyses of functional anatomy of en bloc trachea, a mixed linear model was used that corrected for within-animal correlation. All tests were two-sided and were computed using GraphPad Prism (GraphPad Software, Inc., La Jolla, CA). P-values <0.05 were considered significant. Statistics are reported as means ± SE, unless indicated otherwise.

people with CF = system: people with CF; parameters: method as in PMID 35227647; conditions: single-dose inhalation, NCT02950805; cited from earlier work
[1] = parameters: method as in unpublished information; conditions: ref unpublished information, cited from earlier work

- pEC50 (ENaC; F508del-homozygous HBE ALI cultures, read-out: half maximal effective concentration (EC50), cumulative drug effect on Isc): 7.34
- incremental Isc change (ENaC; at 100 nM): −6.4 ± 1.6
- cumulative ΔIsc (ENaC; at the maximum concentration (10,000 nM)): −25.3 ± 5.9
- further reduction in Isc upon acute addition of benzamil (ENaC; benzamil 10 μM after maximal concentration of test drug): no further appreciable reductions in Isc
Substance: AZD5634
- effect on MCC (people with CF): did not demonstrate augmented MCC
- hyperkalemia ([1]; after inhalation and/or nebulization): does not cause hyperkalemia
- renal clearance [1]: minimal
